These results are taken from patent publication US20240368127A1, “HSD17B13 INHIBITORS AND USES THEREOF” (FL2022-001, Inc., priority 2021, published 2024).

The assay addresses T1, Recombinant human HSD17B13 enzyme (Homo sapiens, UniProt Q7Z5P4).
T1 sequence (Q7Z5P4 20-300): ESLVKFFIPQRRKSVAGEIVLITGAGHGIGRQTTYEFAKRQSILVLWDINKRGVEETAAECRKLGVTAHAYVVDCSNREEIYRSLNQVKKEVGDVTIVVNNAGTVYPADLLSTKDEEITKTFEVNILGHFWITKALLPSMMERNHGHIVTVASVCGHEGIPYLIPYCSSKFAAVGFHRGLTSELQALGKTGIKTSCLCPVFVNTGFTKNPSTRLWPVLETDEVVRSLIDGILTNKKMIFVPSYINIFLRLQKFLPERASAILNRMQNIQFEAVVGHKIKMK
Briefly: HSD17b13 NAD(P)H-Glo biochemical assay. The settings on record: 50 μM estradiol, 1 mM NAD+, 37° C. for 3 hours; read-out: HSD17β13 IC50. The protocol: Example B-1: HSD17b13 NAD (P) H-Glo Biochemical Assay
Recombinant human HSD17B13 enzyme. Substrate: estradiol (Sigma β-Estradiol E8875), 100 mM in DMSO. Cofactor: NAD+ Grade I free acid (Sigma 10127965001), 20 mM in H2O. Assay buffer final concentration: 20 mM Tris pH7.4 with 0.002% Tween-20 and 0.02% BSA. Assay performed in 384 well solid bottom plate (Corning 3570). Enzymatic activity detected by NAD (P) H-Glo™ Detection System (Promega G9062).
Inhibitor compounds were serially diluted in DMSO and then further diluted in assay buffer to a 10× concentration consisting of 1% DMSO.
HSD17b13 enzyme was diluted in 1× assay buffer to the desired enzyme concentration based on the specific activity of the enzyme lot. 20 μL of diluted enzyme was added to each well along with 2.5 μL of 10× inhibitor solution. Assay plate was incubated at RT for 20 minutes, and then 2.5 μL of a 10× substrate/cofactor mix was added to each well for a final concentration of 50 μM estradiol and 1 mM NAD+. Assay plate was incubated at 37° C. for 3 hours. NAD (P) H-Glo™ Detection System reagents were prepared according to manufacturer's specifications, and 25 μL was added to each well. After incubating for 1 hour at RT, luminescence was measured.

The IC50 is the concentration that inhibits the measured activity by half. Turning to `Cn1nc(-c2cc(C(F)(F)F)c(F)c(O)c2F)c2cnc(N3CCOC[C@H]3Cc3ccc(F)cc3)nc21` [Compound 5.23, (R)-2,6-Difluoro-3-(6-(3-(4-fluorobenzyl)morpholino)-1-methyl-1H-pyrazolo[3,4-d]pyrimidin-3-yl)-5-(trifluoromethyl)phenol], the IC50 was not above 100 nM.
The figure for `COC(=O)[C@@H]1COCCN1c1ncc2c(-c3cc(C(F)(F)F)c(F)c(O)c3F)nn(C)c2n1` [Compound 11.23, Methyl (S)-4-(3-(2,4-difluoro-3-hydroxy-5-(trifluoromethyl)phenyl)-1-methyl-1H-pyrazolo[3,4-d]pyrimidin-6-yl)morpholine-3-carboxylate] is not above 100 nM; for `Cc1nn(-c2cc(C(F)(F)F)cc(O)c2F)c2cnc(N3CCOC(Cc4ccccc4)C3)cc12` (stereo not shown) [Compound 2.05, 3-(5-(2-Benzylmorpholino)-3-methyl-1H-pyrazolo[3,4-c]pyridin-1-yl)-2-fluoro-5-(trifluoromethyl)phenol] it is 100 to 1000 nM.
In the case of `CC(C)CC1COCCN1c1ncc2c(-c3cc(C(F)(F)F)c(F)c(O)c3F)nn(C)c2n1` (stereo not shown) [Compound 5.35, 2,6-Difluoro-3-(6-(3-isobutylmorpholino)-1-methyl-1H-pyrazolo[3,4-d]pyrimidin-3-yl)-5-(trifluoromethyl)phenol], the IC50 was not above 100 nM.
The figure for `Cc1nn(-c2cc(C(F)(F)F)c(F)c(O)c2F)c2cnc(N3CCOC[C@H]3Cc3ccccc3)nc12` [Compound 2.31, (R)-3-(5-(3-Benzylmorpholino)-3-methyl-1H-pyrazolo[4,3-d]pyrimidin-1-yl)-2,6-difluoro-5-(trifluoromethyl)phenol] is not above 100 nM; for `Cn1nc(-c2cc(C(F)(F)F)c(F)c(O)c2F)c2cnc(N3CCN(S(C)(=O)=O)C(CC4CCC4)C3)nc21` (stereo not shown) [Compound 5.37, 3-(6-(3-(Cyclobutylmethyl)-4-(methylsulfonyl)piperazin-1-yl)-1-methyl-1H-pyrazolo[3,4-d]pyrimidin-3-yl)-2,6-difluoro-5-(trifluoromethyl)phenol] it is not above 100 nM; for `Cc1nn(-c2cc(C(F)(F)F)c(F)c(O)c2F)c2cnc(N3CCOCC3Cc3ccccc3)cc12` (stereo not shown) [Compound 2.01, 3-(5-(3-Benzylmorpholino)-3-methyl-1H-pyrazolo[3,4-c]pyridin-1-yl)-2,6-difluoro-5-(trifluoromethyl)phenol] it is not above 100 nM.
For `COC(=O)N1CCN(c2ncc3c(-c4cc(C(F)(F)F)c(F)c(O)c4F)nn(C)c3n2)C[C@@H]1Cc1ccccc1` [Compound 6.08, Methyl (S)-2-benzyl-4-(3-(2,4-difluoro-3-hydroxy-5-(trifluoromethyl)phenyl)-1-methyl-1H-pyrazolo[3,4-d]pyrimidin-6-yl)piperazine-1-carboxylate], the IC50 is not above 100 nM.
With `Cn1nc(-c2cc(C(F)(F)F)c(F)c(O)c2F)c2cnc(N3CCO[C@@H](Cc4cccc(S(N)(=O)=O)c4)C3)nc21` [Compound 12.06, (S)-3-((4-(3-(2,4-Difluoro-3-hydroxy-5-(trifluoromethyl)phenyl)-1-methyl-1H-pyrazolo[3,4-d]pyrimidin-6-yl)morpholin-2-yl)methyl)benzenesulfonamide], the IC50 was not above 100 nM.
Take `COC(=O)N1CCN(c2ncc3c(-c4cc(C(F)(F)F)c(F)c(O)c4F)nn(C)c3n2)[C@H](Cc2ccccc2)C1` [Compound 6, Methyl (R)-3-benzyl-4-(3-(2,4-difluoro-3-hydroxy-5-(trifluoromethyl)phenyl)-1-methyl-1H-pyrazolo[3,4-d]pyrimidin-6-yl)piperazine-1-carboxylate]: the IC50 was not above 100 nM.
The figure for `Cn1nc(-c2cc(C(F)(F)F)c(F)c(O)c2F)c2cnc(N3CC[C@H]3Cc3ccccc3)nc21` (single isomer, unassigned) [Compound 15.10] is not above 100 nM.
With `CCN1CCN(c2ncc3c(n2)c(C)nn3-c2cc(C(F)(F)F)c(F)c(O)c2F)[C@H](Cc2ccccc2)C1` [Compound 2.32, (R)-3-(5-(2-Benzyl-4-ethylpiperazin-1-yl)-3-methyl-1H-pyrazolo[4,3-d]pyrimidin-1-yl)-2,6-difluoro-5-(trifluoromethyl)phenol], the IC50 is not above 100 nM.
`CS(=O)(=O)N1CCN(c2ccc(-n3nnc4cc(F)c(O)c(F)c43)cc2)[C@@H](Cc2ccccc2)C1` [Compound 1.01, (S)-1-(4-(2-Benzyl-4-(methylsulfonyl)piperazin-1-yl)phenyl)-5,7-difluoro-1H-benzo[d][1,2,3]triazol-6-ol]: the IC50 lay within 100 to 1000 nM.
In the case of `CN(C)c1nn(-c2cc(C(F)(F)F)c(F)c(O)c2F)c2ccc(N3CCN(S(C)(=O)=O)C[C@H]3Cc3ccccc3)cc12` [Compound 2.25, (R)-3-(5-(2-Benzyl-4-(methylsulfonyl)piperazin-1-yl)-3-(dimethylamino)-1H-indazol-1-yl)-2,6-difluoro-5-(trifluoromethyl)phenol], the IC50 is not above 100 nM.
The figure for `Cn1nc(-c2cc(C(F)(F)F)c(F)c(O)c2F)c2cnc(N3CCO[C@@H](Cc4cccc(C(N)=O)c4)C3)nc21` [Compound 12.05, (S)-3-((4-(3-(2,4-Difluoro-3-hydroxy-5-(trifluoromethyl)phenyl)-1-methyl-1H-pyrazolo[3,4-d]pyrimidin-6-yl)morpholin-2-yl)methyl)benzamide] is not above 100 nM; for `Cn1nc(-c2cc(C(F)(F)F)c(F)c(O)c2F)c2cnc(N3CCC(O)(CN4CCOCC4)CC3)nc21` [Compound 5.05, 1-(3-(2,4-Difluoro-3-hydroxy-5-(trifluoromethyl)phenyl)-1-methyl-1H-pyrazolo[3,4-d]pyrimidin-6-yl)-4-(morpholinomethyl)piperidin-4-ol] it is 100 to 1000 nM.
As to `Cn1nc(-c2cc(C(F)(F)F)c(F)c(O)c2F)c2cnc(N3CCCCC3Cc3ccccc3)nc21` (stereo not shown) [Compound 5.32, 3-(6-(2-Benzylpiperidin-1-yl)-1-methyl-1H-pyrazolo[3,4-d]pyrimidin-3-yl)-2,6-difluoro-5-(trifluoromethyl)phenol], the IC50 was not above 100 nM.
In the case of `CC#Cc1cc(-c2nn(C)c3nc(N4CCN(S(C)(=O)=O)C[C@H]4Cc4ccccc4)ncc23)c(F)c(O)c1F` [Compound 11.18, (R)-3-(6-(2-Benzyl-4-(methylsulfonyl)piperazin-1-yl)-1-methyl-1H-pyrazolo[3,4-d]pyrimidin-3-yl)-2,6-difluoro-5-(prop-1-yn-1-yl)phenol], the IC50 was not above 100 nM.
The figure for `CS(=O)(=O)N1CCN(c2ncc3c(-c4cc(C(F)(F)F)c(F)c(O)c4F)n[nH]c3n2)C[C@@H]1Cc1ccccc1` [Compound 5.22, (S)-3-(6-(3-Benzyl-4-(methylsulfonyl)piperazin-1-yl)-1H-pyrazolo[3,4-d]pyrimidin-3-yl)-2,6-difluoro-5-(trifluoromethyl)phenol] is not above 100 nM; for `Cn1nc(-c2cc(C(F)(F)F)c(F)c(O)c2F)c2cnc(N3CCN(S(C)(=O)=O)C[C@@H]3CC3CCCCC3)nc21` (single isomer, unassigned) [Compound 15.01] it is not above 100 nM; for `Cn1nc(-c2cc(C(F)(F)F)c(F)c(O)c2F)c2cnc(N3CCN(S(C)(=O)=O)[C@H](Cc4ccccc4)C3)nc21` [Compound 5.15, (R)-3-(6-(3-Benzyl-4-(methylsulfonyl)piperazin-1-yl)-1-methyl-1H-pyrazolo[3,4-d]pyrimidin-3-yl)-2,6-difluoro-5-(trifluoromethyl)phenol] it is not above 100 nM.
The figure for `Cn1nc(-c2cc(C(F)(F)F)c(F)c(O)c2F)c2cnc(N3CCN(S(C)(=O)=O)C[C@@H]3Cc3ccccc3)nc21` [Compound 5.06, (S)-3-(6-(2-Benzyl-4-(methylsulfonyl)piperazin-1-yl)-1-methyl-1H-pyrazolo[3,4-d]pyrimidin-3-yl)-2,6-difluoro-5-(trifluoromethyl)phenol] is not above 100 nM; for `CS(=O)(=O)N1CCN(c2ncc3c(-c4cc(C(F)(F)F)c(F)c(O)c4F)n[nH]c3n2)[C@H](Cc2ccccc2)C1` [Compound 5.18, (R)-3-(6-(2-Benzyl-4-(methylsulfonyl)piperazin-1-yl)-1H-pyrazolo[3,4-d]pyrimidin-3-yl)-2,6-difluoro-5-(trifluoromethyl)phenol] it is not above 100 nM; for `Cc1c(C(F)(F)F)cc(-c2nn(C)c3nc(N4CCN(S(C)(=O)=O)C[C@H]4Cc4ccccc4)ncc23)c(F)c1O` [Compound 11.19, (R)-3-(6-(2-Benzyl-4-(methylsulfonyl)piperazin-1-yl)-1-methyl-1H-pyrazolo[3,4-d]pyrimidin-3-yl)-2-fluoro-6-methyl-5-(trifluoromethyl)phenol] it is not above 100 nM.
Take `Cn1nc(-c2cc(C(F)(F)F)c(F)c(O)c2F)c2cnc(N3CCCCC3Cn3cncn3)nc21` (stereo not shown) [Compound 5.34, 3-(6-(2-((1H-1,2,4-Triazol-1-yl)methyl)piperidin-1-yl)-1-methyl-1H-pyrazolo[3,4-d]pyrimidin-3-yl)-2,6-difluoro-5-(trifluoromethyl)phenol]: the IC50 lay within 100 to 1000 nM.
